According to ChEMBL document CHEMBL1124402, “Potent angiotensin II antagonists with non-beta-branched amino acids in position 5” (1989):
Square brackets hold non-standard residues; d marks the D form. Peptide text beside a SMILES is read from it. Gly(cPent) = N[C@H](C(=O)O)C1CCCC1; Chg = N[C@H](C(=O)O)C1CCCCC1; Nle = CCCC[C@H](N)C(=O)O; Abu = CC[C@H](N)C(=O)O; Sar = CNCC(=O)O

Tests used:
Rattus norvegicus [1] = assay: In vivo angiotensin II like activity determined in rat blood pressure assay measured as increase in BP by 1 ug iv of compound; format: functional
Rattus norvegicus [2] = assay: In vivo antagonistic activity was measured in the rat blood pressure assay; format: functional
Oryctolagus cuniculus [3] = species: Oryctolagus cuniculus; assay: In vitro antagonist activity was measured in rabbit aorta assay as pA2
Rattus norvegicus [4] = assay: (§1) In vivo angiotensin II like activity expressed in rat blood pressure assay measured as increase in BP by 1 ug bolus intravenous injection of compound; format: functional
[5] = biological target: Type-1 angiotensin II receptor (Oryctolagus cuniculus) (UniProt P34976); assay: In vitro antagonist activity of compound towards angiotensin II like was measured in rabbit aorta assay; conditions: target entry is the homologue from another species
Oryctolagus cuniculus [6] = species: Oryctolagus cuniculus; assay: In vitro antagonist activity of compound towards angiotensin II like was measured in rabbit aorta assay; format: functional
[7] = biological target: T1, Type-2 angiotensin II receptor (Rattus norvegicus) (UniProt P35351); assay: as §1; format: functional, organism-based
T1 sequence (whole entry): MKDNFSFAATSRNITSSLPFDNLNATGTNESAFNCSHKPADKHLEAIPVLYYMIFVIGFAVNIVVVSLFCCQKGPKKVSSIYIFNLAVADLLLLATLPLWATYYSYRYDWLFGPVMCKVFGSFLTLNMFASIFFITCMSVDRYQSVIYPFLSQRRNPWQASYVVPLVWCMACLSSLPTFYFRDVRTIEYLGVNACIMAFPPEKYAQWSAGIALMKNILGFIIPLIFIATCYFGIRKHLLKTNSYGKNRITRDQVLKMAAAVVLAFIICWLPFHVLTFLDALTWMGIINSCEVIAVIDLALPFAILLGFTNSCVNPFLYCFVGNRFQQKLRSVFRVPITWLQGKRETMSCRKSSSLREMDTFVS

Rattus norvegicus [8] = assay: In vivo inhibitory activity against Residual angiotensin II in the rat blood pressure; format: functional
Rattus norvegicus [9] = assay: In vivo residual angiotensin II like activity in an rat blood pressure assay; format: functional; design: concentration or dose not given beside the values
[10] = biological target: Type-1 angiotensin II receptor (Oryctolagus cuniculus) (UniProt P34976); assay: In vitro antagonist activity of compound towards angiotensin II like was measured in a rabbit aorta assay; conditions: target entry is the homologue from another species

Sequence of Type-1 angiotensin II receptor (Oryctolagus cuniculus) (P34976 whole entry, looked up): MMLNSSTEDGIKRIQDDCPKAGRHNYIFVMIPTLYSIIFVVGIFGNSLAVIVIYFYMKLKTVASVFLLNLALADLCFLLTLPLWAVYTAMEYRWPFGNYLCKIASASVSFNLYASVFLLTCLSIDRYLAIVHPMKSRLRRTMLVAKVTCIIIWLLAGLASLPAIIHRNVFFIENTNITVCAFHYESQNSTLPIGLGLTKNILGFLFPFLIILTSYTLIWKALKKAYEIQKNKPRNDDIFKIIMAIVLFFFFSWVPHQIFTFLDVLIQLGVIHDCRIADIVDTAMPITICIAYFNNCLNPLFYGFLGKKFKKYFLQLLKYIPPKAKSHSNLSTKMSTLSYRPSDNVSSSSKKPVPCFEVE

`CC[C@H](C)[C@H](NC(=O)[C@@H]1CCCN1C(=O)[C@H](Cc1c[nH]cn1)NC(=O)[C@H](Cc1c[nH]c2ccccc12)NC(=O)[C@H](Cc1ccc(O)cc1)NC(=O)[C@@H](NC(=O)[C@H](CCCN=C(N)N)NC(=O)CNC)C(C)C)C(=O)O` gave a BP (Rattus norvegicus [1]) of 7.5 mmHg, an ID50 (Rattus norvegicus [2]) of 50 ng min-1 rat-1 and a pA2 (Oryctolagus cuniculus [3]) of 7.25.
`CC[C@H](C)[C@H](NC(=O)[C@@H]1CCCN1C(=O)[C@H](Cc1c[nH]cn1)NC(=O)[C@H](Cc1c[nH]cn1)NC(=O)[C@H](Cc1ccc(O)cc1)NC(=O)[C@@H](NC(=O)[C@H](CCCN=C(N)N)NC(=O)CNC)C(C)C)C(=O)O` showed a BP (Rattus norvegicus [1]) of 10 mmHg, an ID50 (Rattus norvegicus [2]) of 5 ng min-1 rat-1 and a pA2 (Oryctolagus cuniculus [3]) of 9.
`CC[C@H](C)[C@H](NC(=O)[C@@H]1CCCN1C(=O)[C@H](Cc1c[nH]cn1)NC(=O)[C@H](Cc1ccc(O)cc1)NC(=O)[C@H](Cc1ccc(O)cc1)NC(=O)[C@@H](NC(=O)[C@H](CCCN=C(N)N)NC(=O)CNC)C(C)C)C(=O)O` gave a BP (Rattus norvegicus [1]) of 2.5 mmHg, an ID50 (Rattus norvegicus [2]) of 50 ng min-1 rat-1 and a pA2 (Oryctolagus cuniculus [3]) of 9.6.
In the case of `CC[C@H](C)[C@H](NC(=O)[C@@H]1CCCN1C(=O)[C@H](Cc1c[nH]cn1)NC(=O)[C@H](NC(=O)[C@H](Cc1ccc(O)cc1)NC(=O)[C@@H](NC(=O)[C@H](CCCN=C(N)N)NC(=O)CNC)C(C)C)c1ccccc1)C(=O)O`, the BP (Rattus norvegicus [1]) is reported as 8.5 mmHg, the ID50 (Rattus norvegicus [2]) is reported as 5.5 ng min-1 rat-1 and the pA2 (Oryctolagus cuniculus [3]) is reported as 9.
`CC[C@H](C)[C@H](NC(=O)[C@@H]1CCCN1C(=O)[C@H](Cc1c[nH]cn1)NC(=O)[C@H](CCC(=O)O)NC(=O)[C@H](Cc1ccc(O)cc1)NC(=O)[C@@H](NC(=O)[C@H](CCCN=C(N)N)NC(=O)CNC)C(C)C)C(=O)O` was tested, and the BP (Rattus norvegicus [4]) was 2 mmHg, the ID50 (Rattus norvegicus [2]) was 100 ng min-1 rat-1 and the pA2 [5] was 9.
For `CC[C@H](C)[C@H](NC(=O)[C@@H]1CCCN1C(=O)[C@H](Cc1c[nH]cn1)NC(=O)[C@@H](NC(=O)[C@H](Cc1ccc(O)cc1)NC(=O)[C@@H](NC(=O)[C@H](CCCN=C(N)N)NC(=O)CNC)C(C)C)[C@@H](C)CC)C(=O)O`, the pA2 (Oryctolagus cuniculus [6]) was 9.1, the BP [7] was 10.2 mmHg and the ID50 (Rattus norvegicus [8]) was 10 ng min-1 rat-1.
`CO[C@H](C)[C@H](NC(=O)[C@H](Cc1ccc(O)cc1)NC(=O)[C@@H](NC(=O)[C@H](CCCN=C(N)N)NC(=O)[C@@H](N)CC(N)=O)C(C)C)C(=O)N[C@@H](Cc1c[nH]cn1)C(=O)N1CCC[C@H]1C(=O)N[C@@H](Cc1ccccc1)C(=O)O` (H-NRVYT(Me)HPF-OH) showed an Activity (Rattus norvegicus [9]) of 118%.
In the case of `CC[C@H](NC(=O)[C@H](Cc1ccc(O)cc1)NC(=O)[C@@H](NC(=O)[C@H](CCCN=C(N)N)NC(=O)[C@@H](N)CC(N)=O)C(C)C)C(=O)N[C@@H](Cc1c[nH]cn1)C(=O)N1CCC[C@H]1C(=O)N[C@@H](Cc1ccccc1)C(=O)O` (H-NRVY[Abu]HPF-OH), the Activity (Rattus norvegicus [9]) is reported as 16%.
Work on `CC(C)[C@H](NC(=O)[C@H](CCCN=C(N)N)NC(=O)[C@@H](N)CC(N)=O)C(=O)N[C@@H](Cc1ccc(O)cc1)C(=O)N[C@H](C(=O)N[C@@H](Cc1c[nH]cn1)C(=O)N1CCC[C@H]1C(=O)N[C@@H](Cc1ccccc1)C(=O)O)C1CCCCC1` (H-NRVY[Chg]HPF-OH) yielded an Activity (Rattus norvegicus [9]) of 114%.
Compound `CC(C)[C@H](NC(=O)[C@H](CCCN=C(N)N)NC(=O)[C@@H](N)CC(N)=O)C(=O)N[C@@H](Cc1ccc(O)cc1)C(=O)N[C@H](C(=O)N[C@@H](Cc1c[nH]cn1)C(=O)N1CCC[C@H]1C(=O)N[C@@H](Cc1ccccc1)C(=O)O)C1CCCC1` (H-NRVY[Gly(cPent)]HPF-OH) has an Activity (Rattus norvegicus [9]) of 89%.
Work on `CCCC[C@H](NC(=O)[C@H](Cc1ccc(O)cc1)NC(=O)[C@@H](NC(=O)[C@H](CCCN=C(N)N)NC(=O)[C@@H](N)CC(N)=O)C(C)C)C(=O)N[C@@H](Cc1c[nH]cn1)C(=O)N1CCC[C@H]1C(=O)N[C@@H](Cc1ccccc1)C(=O)O` (H-NRVY[Nle]HPF-OH) yielded an Activity (Rattus norvegicus [9]) of 21%.
With `CC[C@H](C)[C@H](NC(=O)[C@@H]1CCCN1C(=O)[C@H](Cc1c[nH]cn1)NC(=O)[C@H](C)NC(=O)[C@H](Cc1ccc(O)cc1)NC(=O)[C@@H](NC(=O)[C@H](CCCN=C(N)N)NC(=O)CNC)C(C)C)C(=O)O` (H-[Sar]RVYAHPI-OH) the BP (Rattus norvegicus [4]) was 5 mmHg, the ID50 (Rattus norvegicus [2]) was 50 ng min-1 rat-1 and the pA2 [10] was 7.5.
`CC[C@H](C)[C@H](NC(=O)[C@@H]1CCCN1C(=O)[C@H](Cc1c[nH]cn1)NC(=O)[C@H](Cc1ccccc1)NC(=O)[C@H](Cc1ccc(O)cc1)NC(=O)[C@@H](NC(=O)[C@H](CCCN=C(N)N)NC(=O)CNC)C(C)C)C(=O)O` (H-[Sar]RVYFHPI-OH) gave a BP (Rattus norvegicus [1]) of 7.5 mmHg, an ID50 (Rattus norvegicus [2]) of 100 ng min-1 rat-1 and a pA2 (Oryctolagus cuniculus [3]) of 9.15.
With `CC[C@H](C)[C@H](NC(=O)[C@@H]1CCCN1C(=O)[C@H](Cc1c[nH]cn1)NC(=O)[C@H](CCCCN)NC(=O)[C@H](Cc1ccc(O)cc1)NC(=O)[C@@H](NC(=O)[C@H](CCCN=C(N)N)NC(=O)CNC)C(C)C)C(=O)O` (H-[Sar]RVYKHPI-OH) the BP (Rattus norvegicus [4]) was 10 mmHg, the ID50 (Rattus norvegicus [2]) was 50 ng min-1 rat-1 and the pA2 [5] was 8.7.
`CC[C@H](C)[C@H](NC(=O)[C@@H]1CCCN1C(=O)[C@H](Cc1c[nH]cn1)NC(=O)[C@@H]1CCCN1C(=O)[C@H](Cc1ccc(O)cc1)NC(=O)[C@@H](NC(=O)[C@H](CCCN=C(N)N)NC(=O)CNC)C(C)C)C(=O)O` (H-[Sar]RVYPHPI-OH) gave a pA2 (Oryctolagus cuniculus [6]) of 8.7 and a BP (Rattus norvegicus [4]) of 7 mmHg.
